Measured values from US10000484B2, “Inhibitors of the renal outer medullary potassim channel” (MERCK SHARP & DOHME CORP., priority 2013, dated 2018).

target: T1, hROMK (hKir1.1) (Homo sapiens, UniProt P48048); test: Thallium Flux Assay (ROMK channel functional thallium flux assay, FLIPR-Tetra); format: cell-based; settings: HEK293 cells stably expressing hROMK; 30 min incubation with compound
T1 construct: expressed in transfected cells
T1 sequence (P48048 1-391): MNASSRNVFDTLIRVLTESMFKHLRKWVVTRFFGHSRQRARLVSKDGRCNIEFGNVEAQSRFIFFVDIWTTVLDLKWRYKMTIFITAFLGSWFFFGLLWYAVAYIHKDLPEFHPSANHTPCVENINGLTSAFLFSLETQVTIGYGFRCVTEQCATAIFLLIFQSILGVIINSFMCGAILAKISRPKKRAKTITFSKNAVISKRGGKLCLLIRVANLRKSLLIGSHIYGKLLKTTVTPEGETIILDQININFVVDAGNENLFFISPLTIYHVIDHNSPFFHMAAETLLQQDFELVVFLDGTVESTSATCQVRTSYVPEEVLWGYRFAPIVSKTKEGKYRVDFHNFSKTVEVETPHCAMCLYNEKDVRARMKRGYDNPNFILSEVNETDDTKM
Description: The following Thallium Flux Assay was performed on each of the final product compounds in the Examples. When the final product of an Example was an HCl salt, the salt was run in the Assay.
HEK293 cells stably expressing hROMK (hKir1.1) were grown at 37° C. in a 10% CO2 humidified incubator in complete growth media: Dulbecco's Modified Eagle Medium supplemented with non-essential amino acids, Penicillin/Streptomycin/Glutamine, G418 and FBS. At >80% confluency, aspirate the media from the flask and rinse with 10 mL Calcium/Magnesium-free PBS. Add 5 mL of 1× trypsin (prepared in Ca/Mg Free PBS) to T-225 flask and return flask to 37° C./CO2 incubator for 2-3 minutes. To dislodge the cell, gently bang the side of the flask with your hand. Triturate the cells completely and then transfer the cells to 25 mL complete media. Centrifuge at 1,500 rpm for 6 min followed by resuspension in complete growth media and determine cell concentration. For typical re-seeding, 4E6 cells/T-225 flask will attain >80% confluency in 4 days. Under ideal growth conditions and appropriate tissue culture practices, this cell line is stable for 40-45 passages.
FluxOR Kit Components (Invitrogen F10017)
• FluxOR™ Reagent (Component A) • FluxOR™ Assay Buffer (Component B)—10× Concentrate • PowerLoad™ Concentrate (Component C)—100× Concentrate • Probenecid (Component D)—Lyophilized sample is kept at −20° C. Water soluble, 100× after solubilization in 1 mL water. Store at 4° C. • FluxOR™ Chloride-free Buffer (Component E)—5× Concentrate • Potassium sulfate (K2SO4) Concentrate (Component F)—125 mM in water. Store at 4° C. • Thallium sulfate (Tl2SO4) Concentrate (Component G)—50 mM in water. Store at 4° C. • DMSO (dimethyl sulfoxide, Component H)—1 mL (100%) Reagent Preparation: FluxOR Working Solutions • 1000× FluxOR™ Reagent: Reconstitute a vial of component A in 100 μl DMSO; Mix well; Store 10 μl aliquots at −20° C. • 1× FluxOR™ Assay Buffer: Dilute Component B 10-fold with water; Adjust pH to 7.4 with Hepes/NaOH; Filter and store at 4° C. • Probenecid/Assay Buffer: 100 mL of 1× FluxOR™ Assay Buffer; 1 mL of reconstituted component D; Store at 4° C. • Loading Buffer (per microplate): 10 μl 1000× FluxOR™ Reagent; 100 μl component C; 10 mL Probenecid/Assay Buffer • Compound Buffer (per microplate): 20 mL Probenecid/Assay Buffer; 0.3 mM ouabain (10 mM ouabain in water can be stored in amber bottle/aluminum foil at room temperature); Test compound • 1× FluxOR™ Chloride-Free Buffer: Prepare 1× working solution in water. Can be stored at room temperature • Stimulant Buffer (prepared at 5× final concentration in 1× FluxOR™ Chloride-Free Buffer): 7.5 mM Thallium sulfate and 0.75 mM Potassium sulfate (to give a final assay concentration of 3 mM Thallium/0.3 mM Potassium). Store at 4° C. when not in use. Assay Protocol—
The ROMK channel functional thallium flux assay is performed in 384 wells, using the FLIPR-Tetra instrument. HEK-hKir1.1 cells are seeded in Poly-D-Lysine microplates and kept in a 37° C.-10% CO2 incubator overnight. On the day of the experiment, the growth media is replaced with the FluxOR™ reagent loading buffer and incubated, protected from light, at ambient temperature (23-25° C.) for 90 min. The loading buffer is replaced with assay buffer±test compound followed by 30 min incubation at ambient temperature, where the Thallium/Potassium stimulant is added to the microplate.
1. Seed HEK-hKir1.1 cells (50 μl at 20,000 cells/well) in 384-well PDL coated Microplates
2. Allow cells to adhere overnight in humidified 37° C./10% CO2 incubator
3. Completely remove cell growth media from microplate and replace with 25 μl loading buffer
4. Incubate Microplate at room temperature, protected form light, for 90 min
5. Remove loading buffer and replace with 25 μl 1× Assay Buffer±test compound.
6. Incubate microplate at room temperature, protected from light, for 30 min
7. At FLIPR-Tetra 384: Add stimulant (Thallium/Potassium) solution to microplate and monitor fluorescence. […]

Q: How did the IC50 turn out when `Cc1cc(C#N)ccc1-c1ncc2c(n1)CCN(CCc1ccc3c(c1C)COC3=O)C2` [Example 1, 3-methyl-4-(6-(2-(4-methyl-1-oxo-1,3-dihydroisobenzofuran-5-yl)ethyl)-5,6,7,8-tetrahydropyrido[4,3-d]pyrimidin-2-yl)benzonitrile] was run?
A: The IC50 was 477 nM.

Q: With `N#Cc1ccc(-n2cc3c(n2)CCN(CCc2ccc4c(c2)COC4=O)C3)cc1` [Example 5, 4-{5-[2-(1-oxo-1,3-dihydro-2-benzofuran-5-yl)ethyl]-4,5,6,7-tetrahydro-2H-pyrazolo[4,3-c]pyridin-2-yl}benzonitrile] as the compound, how does the IC50 read?
A: The IC50 was 43.8 nM.

Q: How did the IC50 turn out when `O=C1OCc2cc(CCN3CCc4nc(-c5ccc(-n6cnnn6)cc5)ncc4C3)ccc21` [Example 6, 6-[2-(1-oxo-1,3-dihydro-2-benzofuran-5-yl)ethyl]-2-[4-(1H-tetrazol-1-34)phenyl]-5,6,7,8-tetrahydropyrido[4,3-d]pyrimidine-1,6-diium] was run?
A: The IC50 was 74 nM.

Q: Which IC50 does the source give for `Cc1c(CCN2CCc3nc(-c4ccc(-n5cnnn5)cc4)ncc3C2)ccc2c1COC2=O` [Example 7, 6-[2-(4-methyl-1-oxo-1,3-dihydro-2-benzofuran-5-yl)ethyl]-2-[4-(1H-tetrazol-1-yl)phenyl]-5,6,7,8-tetrahydropyrido[4,3-d]pyrimidine-1,6-diium] here?
A: Its IC50 is 168 nM.

Q: Which IC50 does the source give for `COc1cc(-c2ncc3c(n2)CCN(CCc2ccc4c(c2C)COC4=O)C3)ccc1C#N` [Example 11, 2-methoxy-4-{6-[2-(4-methyl-1-oxo-1,3-dihydro-2-benzofuran-5-yl)ethyl]-5,6,7,8-tetrahydropyrido[4,3-d]pyrimidin-2-yl}benzonitrile] here?
A: Its IC50 is 83.8 nM.

Q: `Cc1c(CCN2CCn3c(-c4ccc5c(c4)COC5=O)cnc3C2)ccc2c1COC2=O` [Example 12, 4-methyl-5-{2-[3-(1-oxo-1,3-dihydro-2-benzofuran-5-yl)-5,6-dihydroimidazo[1,2-a]pyrazin-7(8H)-yl]ethyl}-2-benzofuran-1(3H)-one] was tested. Which IC50 did it give?
A: The IC50 was 124 nM.

Q: With `Cc1c(CCN2CCn3cc(-c4ccc5c(c4)COC5=O)nc3C2)ccc2c1COC2=O` [Example 13, 4-methyl-5-{2-[2-(1-oxo-1,3-dihydro-2-benzofuran-5-yl)-5,6-dihydroimidazo[1,2-a]pyrazin-7(8H)-yl]ethyl}-2-benzofuran-1(3H)-one] as the compound, how does the IC50 read?
A: Its IC50 is 134 nM.

Q: Which IC50 does the source give for `COc1cc(-c2nnc3n2CCN(CCc2ccc4c(c2C)COC4=O)C3)ccc1C#N` [Example 14, 2-methoxy-4-{7-[2-(4-methyl-1-oxo-1,3-dihydro-2-benzofuran-5-yl)ethyl]-5,6,7,8-tetrahydro[1,2,4]triazolo[4,3-a]pyrazin-3-yl}benzonitrile] here?
A: Its IC50 is 85 nM.

Q: With `Cc1c(CCN2CCn3nc(-c4ccc5c(c4)COC5=O)nc3C2)ccc2c1COC2=O` [Example 16, 4-methyl-5-{2-[2-(1-oxo-1,3-dihydro-2-benzofuran-5-yl)-5,6-dihydro[1,2,4]triazolo[1,5-a]pyrazin-7(8H)-yl]ethyl}-2-benzofuran-1(3H)-one] as the compound, how does the IC50 read?
A: Its IC50 is 89 nM.

Q: Which IC50 does the source give for `Cc1c(CCN2CCn3cc(-c4ccc5c(c4)CCOC5=O)nc3C2)ccc2c1COC2=O` [Example 17, 6-{7-[2-(4-methyl-1-oxo-1,3-dihydro-2-benzofuran-5-yl)ethyl]-5,6,7,8-tetrahydroimidazo[1,2-a]pyrazin-2-yl}-3,4-dihydro-1H-isochromen-1-one] here?
A: Its IC50 is 654 nM.

Q: How did the IC50 turn out when `Cc1c(CCN2CCc3nc(-c4ccc5c(c4)COC5=O)oc3C2)ccc2c1COC2=O` [Example 18, 4-methyl-5-{2-[2-(1-oxo-1,3-dihydro-2-benzofuran-5-yl)-6,7-dihydro[1,3]oxazolo[5,4-c]pyridin-5(4H)-yl]ethyl}-2-benzofuran-1(3H)-one] was run?
A: Its IC50 is 74.7 nM.

Q: Which IC50 does the source give for `C[C@H]1Cc2cc(CCN3CCn4cc(-c5ccc6c(c5)COC6=O)nc4C3)ccc2C(=O)O1` [Example 19, (3S)-3-methyl-6-{2-[2-(1-oxo-1,3-dihydro-2-benzofuran-5-yl)-5,6-dihydroimidazo[1,2-a]pyrazin-7(8H)-yl]ethyl}-3,4-dihydro-1H-isochromen-1-one] here?
A: Its IC50 is 198 nM.

Q: Which IC50 does the source give for `O=C1OCCc2cc(CCN3CCn4cc(-c5ccc6c(c5)COC6=O)nc4C3)ccc21` [Example 20, 6-{2-[2-(1-oxo-1,3-dihydro-2-benzofuran-5-yl)-5,6-dihydroimidazo[1,2-a]pyrazin-7(8H)-yl]ethyl}-3,4-dihydro-1H-isochromen-1-one] here?
A: Its IC50 is 192 nM.

Q: For `Cc1c(CCN2CCc3nc(-c4ccc(C#N)cn4)ncc3C2)ccc2c1COC2=O` [Example 21], which IC50 is on record?
A: Its IC50 is 449 nM.

Q: `Cc1c(CCN2CCc3nc(-c4ccc(F)c(C#N)c4)ncc3C2)ccc2c1COC2=O` [Example 22] was tested. Which IC50 did it give?
A: Its IC50 is 441 nM.

Q: How did the IC50 turn out when `COc1ccc(-c2ncc3c(n2)CCN(CCc2ccc4c(c2C)COC4=O)C3)cc1C#N` [Example 23] was run?
A: Its IC50 is 208 nM.

Q: How did the IC50 turn out when `Cc1c(CCN2CCn3c(nn(-c4ccc(C#N)c(F)c4)c3=O)C2)ccc2c1COC2=O` [Example 24, 2-fluoro-4-{7-[2-(4-methyl-1-oxo-1,3-dihydro-2-benzofuran-5-yl)ethyl]-3-oxo-5,6,7,8-tetrahydro[1,2,4]triazolo[4,3-a]pyrazin-2(3H)-yl}benzonitrile] was run?
A: The IC50 was 177 nM.

Q: How did the IC50 turn out when `Cc1c(CCN2CCn3c(nn(-c4ccc5c(c4)COC5=O)c3=O)C2)ccc2c1COC2=O` [Example 25, 7-[2-(4-methyl-1-oxo-1,3-dihydro-2-benzofuran-5-yl)ethyl]-2-(1-oxo-1,3-dihydro-2-benzofuran-5-yl)-5,6,7,8-tetrahydro[1,2,4]triazolo[4,3-a]pyrazin-3(2H)-one] was run?
A: The IC50 was 92.8 nM.

Q: How did the IC50 turn out when `Cc1c(CCN2CCc3nc(-c4ccc(C#N)cc4F)ncc3C2)ccc2c1COC2=O` [Example 26] was run?
A: Its IC50 is 314 nM.

Q: Which IC50 does the source give for `Cc1c(CCN2CCc3nc(-c4ccc(C#N)c(F)c4)ncc3C2)ccc2c1COC2=O` [Example 27] here?
A: The IC50 was 70.2 nM.

Q: `Cc1c(CCN2CC[C@H]3[C@@H](C2)OC(=O)N3Cc2ccc3c(c2C)COC3=O)ccc2c1COC2=O` [Example 28] was tested. Which IC50 did it give?
A: The IC50 was 113 nM.

Q: How did the IC50 turn out when `Cc1c(CCN2CC[C@@H]3[C@@H](C2)OC(=O)N3Cc2ccc3c(c2C)COC3=O)ccc2c1COC2=O` [Example 29] was run?
A: The IC50 was 201 nM.

Q: Which IC50 does the source give for `Cc1c(CCN2CCc3c(cnn3-c3ccc(C#N)c(F)c3)C2)ccc2c1COC2=O` [Example 30, 2-fluoro-4-(5-(2-(4-methyl-1-oxo-1,3-dihydroisobenzofuran-5-yl)ethyl)-4,5,6,7-tetrahydro-1H-pyrazolo[4,3-c]pyridin-1-yl)benzonitrile] here?
A: Its IC50 is 27.5 nM.

Q: `CC1=C(N2CC3=C(CCN(C[C@H](O)c4ccc5c(c4C)COC5=O)CC3)C2=O)COC1=O` [Example 31, (R)-6-(2-Hydroxy-2-(4-methyl-1-oxo-1,3-dihydroisobenzofuran-5-yl)ethyl)-2-(4-methyl-5-oxo-2,5-dihydrofuran-3-yl)-2,3,5,6,7,8-hexahydropyrrolo[3,4-d]azepin-1(4H)-one] was tested. Which IC50 did it give?
A: The IC50 was 64 nM.
